Tested on: Anti-β-1,6-Glucan IgG antibodies (affinity purified from IVIG, Baxter)
Experiment: ELISA: binding of oligosaccharides to anti-β-1,6-glucan antibodies; further: key: a plus (+) sign indicates that the glucan was active in the assay; a minus (−) sign indicates that the glucan was not active; the '+/−' symbol indicates inconclusive results
Conditions: plate coated with oligosaccharide in PBS; 40 ug/mL anti-Beta 1,6 Glucan IgG; anti-human IgG-HRP, TMB, absorbance at 620 nm
Outline: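 Oligosaccharides coated overnight at 4° C in PBS, casein-blocked 1 h at room temperature, then incubated 45 min with 40 ug/mL anti-β-1,6-glucan IgG. Bound IgG detected with anti-human IgG-HRP (1:5000, 45 min, dark) and TMB; absorbance at 620 nm read every 1 min for 60 min.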

Row | Structure (SMILES) | ELISA assay data: glucan active in detection of anti-beta glucan IgG
1 | CN(CCCCCN)CC(O)[C@@H](O)[C@H](O)[C@H](O)CO[C@@H]1O[C@H](CO[C@@H]2O[C@H](CO[C@@H]3O[C@H](CO)[C@@H](O)[C@H](O)[C@H]3O)[C@@H](O)[C@H](O)[C@H]2O)[C@@H](O)[C@H](O)[C@H]1O (mixture of isomers) [N(Me),N(CH2)5NH2, n=3] | +
2 | [N-]=[N+]=NCCOC1OC(COC2OC(COC3OC(COC4OC(COC5OC(COC6OC(COC7OC(COC8OC(CO)C(O)C(O)C8O)C(O)C(O)C7O)C(O)C(O)C6O)C(O)C(O)C5O)C(O)C(O)C4O)C(O)C(O)C3O)C(O)C(O)C2O)C(O)C(O)C1O (stereo not drawn) [α-O(CH2)2N3, n=8] | +
3 | OCC1OC(OCC2OC(OCC3OC(OCC4OC(OCC5OC(O)C(O)C(O)C5O)C(O)C(O)C4O)C(O)C(O)C3O)C(O)C(O)C2O)C(O)C(O)C1O (stereo not drawn) [OH, n=5] | +
4 | OC[C@H]1O[C@@H](OC[C@H]2O[C@@H](OC[C@H]3OC(O)[C@H](O)[C@@H](O)[C@@H]3O)[C@H](O)[C@@H](O)[C@@H]2O)[C@H](O)[C@@H](O)[C@@H]1O (stereo partly drawn) [OH, n=3] | +
5 | OCC1OC(OCC2OC(OCC3OC(OCC4OC(OCC5OC(OCC6OC(OCC7OC(OCC8OC(O)C(O)C(O)C8O)C(O)C(O)C7O)C(O)C(O)C6O)C(O)C(O)C5O)C(O)C(O)C4O)C(O)C(O)C3O)C(O)C(O)C2O)C(O)C(O)C1O (stereo not drawn) [OH, n=8] | +
6 | [N-]=[N+]=NCCO[C@@H]1OC(CO[C@@H]2OC(CO[C@@H]3OC(CO[C@@H]4OC(CO[C@@H]5OC(CO[C@@H]6O[C@H](CO)[C@@H](O)[C@H](O)[C@H]6O)[C@@H](O)[C@H](O)[C@H]5O)[C@@H](O)[C@H](O)[C@H]4O)[C@@H](O)[C@H](O)[C@H]3O)[C@@H](O)[C@H](O)[C@H]2O)[C@@H](O)[C@H](O)[C@H]1O (stereo partly drawn) [β-O(CH2)2N3, n=6, 2-Azidoethyl [O-β-D-glucopyranosyl-1,6]5-β-D-glucopyranoside] | +

Source: patent publication US10266609B2, “Immunomodulating beta-1,6-D-glucans” (Innate Biotherapeutics, LLC, priority 2014, dated 2019)
